From patent US11857519B2, “Compounds and methods for the targeted degradation of enhancer of zeste homolog 2 polypeptide” (Arvinas Operations, Inc., priority 2016, dated 2024)

molecular target: T1, EZH2 (Homo sapiens, UniProt Q15910); assay: Cellular assay of target protein degradation (VCaP cells, ELISA); format: cell-based; conditions: 4 hours, protein degradation range at indicated concentration (relative to DMSO control)
T1 construct: Protocol of the Cellular Assay of Target Protein Degradation (VCaP Cells, ELISA); endogenous in cells; host or cells: VCaP cells
Method in brief: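 EZH2 level measured by sandwich ELISA (TMB, A450 minus A562 background) in lysates of VCaP cells. Cells had been cultured at least 3 days in 5% CSS RPMI before 4 h compound exposure in 0.1% DMSO.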

T1 sequence (Q15910 whole entry): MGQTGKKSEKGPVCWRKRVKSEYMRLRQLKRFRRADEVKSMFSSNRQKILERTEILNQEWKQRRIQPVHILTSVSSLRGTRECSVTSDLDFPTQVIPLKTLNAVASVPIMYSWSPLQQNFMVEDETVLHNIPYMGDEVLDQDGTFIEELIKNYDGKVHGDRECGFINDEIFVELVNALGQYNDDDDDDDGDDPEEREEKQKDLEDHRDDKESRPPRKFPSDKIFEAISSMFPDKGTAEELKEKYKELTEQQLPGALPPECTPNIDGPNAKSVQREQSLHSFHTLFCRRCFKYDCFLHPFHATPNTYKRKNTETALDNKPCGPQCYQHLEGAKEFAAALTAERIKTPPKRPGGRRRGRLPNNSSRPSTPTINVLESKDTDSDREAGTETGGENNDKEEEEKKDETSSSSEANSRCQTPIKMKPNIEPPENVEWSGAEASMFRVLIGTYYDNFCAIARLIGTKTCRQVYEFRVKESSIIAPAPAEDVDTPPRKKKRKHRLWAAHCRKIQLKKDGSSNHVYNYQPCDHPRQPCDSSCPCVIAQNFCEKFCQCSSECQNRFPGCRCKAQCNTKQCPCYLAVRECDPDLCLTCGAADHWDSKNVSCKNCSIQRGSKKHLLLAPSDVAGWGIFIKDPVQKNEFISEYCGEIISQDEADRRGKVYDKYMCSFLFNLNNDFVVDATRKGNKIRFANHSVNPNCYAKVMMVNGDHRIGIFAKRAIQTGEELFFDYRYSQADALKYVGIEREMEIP
T1 sequence (O75530 whole entry partner): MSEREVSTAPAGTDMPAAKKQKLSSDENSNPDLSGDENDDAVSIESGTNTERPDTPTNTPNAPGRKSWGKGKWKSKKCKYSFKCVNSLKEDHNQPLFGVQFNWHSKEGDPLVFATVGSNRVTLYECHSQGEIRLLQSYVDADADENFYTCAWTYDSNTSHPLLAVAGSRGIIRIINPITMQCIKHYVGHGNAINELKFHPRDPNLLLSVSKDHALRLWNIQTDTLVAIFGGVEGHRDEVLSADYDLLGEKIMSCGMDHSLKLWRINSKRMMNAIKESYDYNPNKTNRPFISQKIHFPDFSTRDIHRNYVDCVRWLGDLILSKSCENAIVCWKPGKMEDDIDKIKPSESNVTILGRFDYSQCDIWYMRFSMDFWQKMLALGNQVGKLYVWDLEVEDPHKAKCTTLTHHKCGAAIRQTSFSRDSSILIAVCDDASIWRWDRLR
T1 sequence (Q15022 whole entry partner): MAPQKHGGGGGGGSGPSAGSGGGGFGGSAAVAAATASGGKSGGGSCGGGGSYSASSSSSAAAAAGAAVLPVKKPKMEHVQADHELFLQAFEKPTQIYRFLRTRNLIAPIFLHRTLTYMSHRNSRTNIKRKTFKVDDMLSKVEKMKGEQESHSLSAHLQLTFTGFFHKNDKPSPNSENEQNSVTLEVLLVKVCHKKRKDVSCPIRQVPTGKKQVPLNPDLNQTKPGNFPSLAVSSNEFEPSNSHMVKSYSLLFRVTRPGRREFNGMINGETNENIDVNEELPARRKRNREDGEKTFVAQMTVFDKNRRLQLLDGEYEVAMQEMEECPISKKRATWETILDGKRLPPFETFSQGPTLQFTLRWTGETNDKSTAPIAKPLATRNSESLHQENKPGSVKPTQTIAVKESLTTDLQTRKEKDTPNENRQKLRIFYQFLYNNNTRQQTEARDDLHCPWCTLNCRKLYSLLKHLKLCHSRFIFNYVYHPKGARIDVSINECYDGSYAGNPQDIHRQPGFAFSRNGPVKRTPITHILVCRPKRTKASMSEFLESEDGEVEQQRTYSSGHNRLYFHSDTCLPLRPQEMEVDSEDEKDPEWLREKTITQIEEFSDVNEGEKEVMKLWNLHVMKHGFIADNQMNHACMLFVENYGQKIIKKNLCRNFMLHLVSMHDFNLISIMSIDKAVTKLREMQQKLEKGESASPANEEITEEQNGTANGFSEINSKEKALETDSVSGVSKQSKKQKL

Row | percent target protein degradation class | Molecule
1 | A (A = degradation more than 60%) | CCN(c1cc(-c2ccc(CN3CCN(CCCOCC(=O)N[C@H](C(=O)N4C[C@H](O)C[C@H]4C(=O)N[C@@H](C)c4ccc(-c5scnc5C)cc4)C(C)(C)C)CC3)cc2)cc(C(=O)NCc2c(C)cc(C)[nH]c2=O)c1C)C1CCOCC1 [Compound 118, (2S,4R)-1-((S)-2-(2-(3-(4-((3′-(((4,6-dimethyl-2-oxo-1,2-dihydropyridin-3-yl)methyl)carbamoyl)-5′-(ethyl(tetrahydro-2H-pyran-4-yl)amino)-4′-methyl-[1,1′-biphenyl]-4-yl)methyl)piperazin-1-yl)propoxy)acetamido)-3,3-dimethylbutanoyl)-4-hydroxy-N-((S)-1-(4-(4-methylthiazol-5-yl)phenyl)ethyl)pyrrolidine-2-carboxamide]
2 | B (B = degradation between 30% and 60%) | CCN(c1cc(-c2ccc(N3CCN(CCCOCCOCC(=O)N[C@H](C(=O)N4C[C@H](O)C[C@H]4C(=O)N[C@@H](C)c4ccc(-c5scnc5C)cc4)C(C)(C)C)CC3)cc2)cc(C(=O)NCc2c(C)cc(C)[nH]c2=O)c1C)C1CCOCC1 [Compound 119, (2S,4R)-1-((S)-2-(2-(2-(3-(4-(3′-(((4,6-dimethyl-2-oxo-1,2-dihydropyridin-3-yl)methyl)carbamoyl)-5′-(ethyl(tetrahydro-2H-pyran-4-yl)amino)-4′-methyl-[1,1′-biphenyl]-4-yl)piperazin-1-yl)propoxy)ethoxy)acetamido)-3,3-dimethylbutanoyl)-4-hydroxy-N-((S)-1-(4-(4-methylthiazol-5-yl)phenyl)ethyl)pyrrolidine-2-carboxamide]

The remaining lines, values behind:

Row | Molecule | percent target protein degradation class
3 | CCN(c1cc(-c2ccc(CN3CCN(CCCCOCC(=O)N[C@H](C(=O)N4C[C@H](O)C[C@H]4C(=O)N[C@@H](C)c4ccc(-c5scnc5C)cc4)C(C)(C)C)CC3)cc2)cc(C(=O)NCc2c(C)cc(C)[nH]c2=O)c1C)C1CCOCC1 [Compound 117, (2S,4R)-1-((S)-2-(2-(4-(4-((3′-(((4,6-dimethyl-2-oxo-1,2-dihydropyridin-3-yl)methyl)carbamoyl)-5′-(ethyl(tetrahydro-2H-pyran-4-yl)amino)-4′-methyl-[1,1′-biphenyl]-4-yl)methyl)piperazin-1-yl)butoxy)acetamido)-3,3-dimethylbutanoyl)-4-hydroxy-N-((S)-1-(4-(4-methylthiazol-5-yl)phenyl)ethyl)pyrrolidine-2-carboxamide] | A (A = degradation more than 60%)
4 | (2R,3S,4R,5S)-3-(3-chloro-2- fluorophenyl)-4-(4-chloro-2- fluorophenyl)-4-cyano-N-[4- ({1-[4-(3-{[(4,6-dimethyl-2- oxo-1,2-dibydropyridin-3- yl)methyl]carbamoyl}-5- [ethyl(oxan-4-yl)amino]-4- methylphenyl)phenyl]-1,4,7,10- tetraoxadodecan-12- yl}carbamoyl)-2- methoxyphenyl]-5-(2,2- dimethylpropyl)pyrrolidine-2- carboxamide [Compound 24] | B (B = degradation between 30% and 60%)
5 | (2R,3S,4R,5S)-3-(3-chloro-2- fluorophenyl)-4-(4-chloro-2- fluorophenyl)-4-cyano-N-[4- ({1-[4-(3-{[(4,6-dimethyl-2- oxo-1,2-dihydropyridin-3- yl)methyl]carbamoyl}-5- [ethyl(oxan-4-yl)amino]-4- methylphenyl)phenyl- 1,4,7,10,13,16- hexaoxaoctadecan-18- yl}carbamoyl)-2- methoxyphenyl]-5-(2,2- dimethylpropyl)pyrrolidine-2- carboxamide [Compound 27] | B (B = degradation between 30% and 60%)
